The results in this text go back to patent US7208628B2, “Compositions and methods for the treatment of hepatitis C virus infection” (Kansas State University Research Foundation, priority 2002, dated 2007).

Molecules are shown by their SMILES.

This test deals with binding of HCV-E2 to CD81 on Molt4 T cells (Hepacivirus hominis (Hepatitis C virus), UniProt P27958). The test can be described thus: HCV-E2/CD81 binding assay on Molt4 T cells, detection with anti-E2 mAb 6F6 and flow cytometry. More on the design: species or system human. The settings on record: for ability to inhibit the HCV-E2 binding to CD81, relative activity in words: structure-activity comparison of linker, side chain and ester against the valine benzyl ester I45DC AL-2-140. An excerpt: Development of a Unique HCV-E2/CD81 Binding Assay. […] The binding of HCV-E2 to CD81 has been reported by several groups (see, e.g. Allander, T., et al., “Hepatitis C virus envelope protein E2 binds to CD81 of tamarins” Virology 277:358–367, 2000). Often those studies involved interactions of purified recombinant proteins. We sought to confirm published findings and to test the ability of HCV-E2 to bind to CD81 expressed on living T cells. Various concentrations of recombinant HCV-E2 (Ala 384 to Lys 715 of the HCV polyprotein produced in CHO cells; Austral Biologicals) was incubated with Molt4 T cells and binding of HCV-E2 to the cells was detected with the anti-E2 monoclonal antibody 6F6 (Austral Biologicals) followed by flow cytometry (FIG. 1). HCV-E2 binding to Molt4 T cells is concentration dependent and easily detectable at concentrations as low as 0.3 μg/mL. This binding assay differs from the assay published by Wünschmann in that the published assay used whole virus and not recombinant […] peptide. (Wünschmann, et al, “Characterization of Hepatitis C Virus (HCV) and HCV E2 Interactions with CD81 and the Low-Density Lipoprotein Receptor” J. Virology 74:10055–10062, 2000).
Effect of I45DCs on HCV-E2 binding to CD81 on T cells. […] Binding was measured by using the novel and sensitive method of the present invention for the detection of binding between the HCV envelope protein E2 and its cellular receptor CD81 on living human T cells. This experimental approach was employed in the evaluation of a series of newly synthesized I45DCs.
HCV-E2 was pre-incubated with or without […] of the indicated compound for 30 minutes at 37° C. prior to addition of HCV-E2 to Molt4 cells and detection as described above. […] The approximate EC50 of 19 was determined by conducting the same type of experiment in the presence of a 1:2 titration of 19 from […] (FIG. 5).

binding of HCV-E2 to CD81 on Molt4 T cells, sequence (P27958 384-715): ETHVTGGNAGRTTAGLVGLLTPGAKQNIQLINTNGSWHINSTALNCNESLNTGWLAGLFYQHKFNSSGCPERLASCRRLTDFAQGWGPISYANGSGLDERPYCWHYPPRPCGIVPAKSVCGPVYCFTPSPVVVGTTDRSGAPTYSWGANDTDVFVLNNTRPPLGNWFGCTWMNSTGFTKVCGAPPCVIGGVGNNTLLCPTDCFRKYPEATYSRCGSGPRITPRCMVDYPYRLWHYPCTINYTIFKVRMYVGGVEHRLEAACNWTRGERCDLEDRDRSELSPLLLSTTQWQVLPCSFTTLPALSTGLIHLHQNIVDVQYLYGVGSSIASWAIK
binding of HCV-E2 to CD81 on Molt4 T cells, sequence (P60033 whole entry, further chain): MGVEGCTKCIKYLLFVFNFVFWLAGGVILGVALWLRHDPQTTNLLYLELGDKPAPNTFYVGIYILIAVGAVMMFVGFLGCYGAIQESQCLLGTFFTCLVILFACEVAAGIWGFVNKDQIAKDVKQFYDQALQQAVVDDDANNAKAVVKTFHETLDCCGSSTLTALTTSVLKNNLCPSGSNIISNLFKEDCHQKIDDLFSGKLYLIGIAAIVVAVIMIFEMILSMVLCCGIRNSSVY

Take `CCN(CCN(CC)C(=O)c1nc[nH]c1C(=O)N[C@H](C(=O)OCc1ccccc1)C(C)C)C(=O)c1nc[nH]c1C(=O)N[C@H](C(=O)OCc1ccccc1)C(C)C` [Compound 19]: the “ability to inhibit the HCV-E2 binding to CD81, relative activity in words” value is listed as “most active compound to date”. The IC50 (commonly the concentration that gives 50% inhibition) (CD81 expressed on human T cells, 1:2 titration of compound, FIG. 5, read-out: approximate IC50 value for blocking binding of HCV-E2 to CD81) was approximately 45 µM. Moreover, the “bioactivity in the HCV-E2 binding assay” value (HCV-E2 pre-incubated with 500 mM compound for 30 minutes at 37° C. before addition to Molt4 cells) is reported as “bioactivity in the sub-millimolar range”. Besides, the “ability to inhibit the HCV-E2 binding to CD81, relative activity in words” value (listed as AL-2-140) was “most active”.
